The values below come from US20240148713A1 (INDUSTRY-ACADEMIC COOPERATION FOUNDATION, YONSEI UNIVERSITY, priority 2021, published 2024).

For data set [1], the system named is HS746T cell line. The data set can be described thus: CCK-8 assay, MRTF A inhibitor and cisplatin alone or in combination. To be noted: 5 μg/ml inhibitor, after 24 hours 5 μM cisplatin, CCK-8 24 hours later, FIG. 8. Type of data set: cell-based, human. The method, then: In the same manner as described above, 5 μg/ml CCG-232601, CCG-203971 or CCG-222740 was first administered to the HS746T cell line, and after 24 hours, 5 μM cisplatin (CDDP) was administered to the cell line, and 24 hours after administration of CDDP, a CCK-8 assay was performed using a cell viability assay kit.

Data set [2] has as its system human colonic myofibroblasts. The note with it: cited from earlier work.
Data set [3] has as its system murine model of skin injury. To be noted: cited from earlier work.
In data set [4] the test system is lung fibrosis lung fibroblasts. The note with it: cited from earlier work.
The subject of data set [5] is alpha smooth muscle actin protein. The note with it: cited from earlier work.
Data set [6] concerns preclinical fibrosis model. To be noted: cited from earlier work.
Data set [7] concerns HS746T. The data set can be described thus: Cell viability (CCK-8), treatment alone, Example 1. Type of data set: cell-based, human. The note with it: HS746T stem-like cell line, different concentrations, 48 hours, FIG. 1. The method, then: (§1) In order to evaluate the ability to inhibit the growth or metastasis of cancer cell lines or cancer stem cell lines in Examples of the present invention, the present inventors obtained the cell lines MKN1 and HS746T having human gastric cancer stem cell characteristics, and the human gastric cancer cell lines SNU601, YCC7 and NCIN87, from the American Type Culture Collection (ATCC) and the Korean Cell Line Bank (KCRB). The cell lines were cultured in different culture media under different culture conditions according to the ATCC or KCRB guides. The MKN1, SNU601, and NCIN87 cell lines were cultured in RPMI1640 media containing 10% fetal bovine serum (FBS), 2 mM L-glutamine, 100 U/ml penicillin and 100 μg/ml streptomycin, and the HS746T and YCC7 cell lines were cultured in DMEM media containing 10% FBS, 2 mM L-glutamine, 100 U/ml penicillin and 100 μg/ml streptomycin. All the cell lines were cultured at 37° C. under 5% CO2, and mycoplasma contamination tests were performed.
(§2) The cell lines cultured in the Preparation Example were seeded into well plates at a density of 1×10^4 cells per well, and cultured overnight at 37° C. under 5% CO2. Next, each of the gastric cancer stem-like cell lines HS746T and MKN1 and the gastric cancer cell lines YCC7 and NCIN87 was treated with different concentrations of each of the anticancer drug cisplatin (CDDP), which is currently widely used in the treatment of gastric cancer patients, and the MRTF A inhibitor CCG-232601 compound, and after 48 hours, the number of cells was counted and the results are shown in FIG. 1. 100 μL of each cell culture and 10 μL of reaction buffer (CCK) were mixed together, placed in a 96-well plate, incubated for 1 hour at room temperature, and then measured for absorbance at a wavelength of 450 nm using a spectrophotometer (Synergy HTX Multi-Reader, BioTek, Winooski, VT, USA). At the same time, the number of cells in each sample was counted using a cell viability assay kit (Cell Counting Kit-8), and the counted value was expressed relative to the cell number of the negative control group so that the same cell number in each cell could be compared with the cell number of the negative control group. The experimental results are shown as the mean values of the repeated experiments.

Data set [8] deals with MKN1. Nature of the data set: Cell viability (CCK-8), treatment alone, Example 1. To be noted: MKN1 stem-like cell line, different concentrations, 48 hours, FIG. 1. Type of data set: cell-based, human. The method, then: as §1, §2
Data set [9] concerns NCIN87. Nature of the data set: Cell viability (CCK-8), treatment alone, Example 1. The data set is classed as cell-based, human. To be noted: NCIN87 gastric cancer cell line, different concentrations, 48 hours, FIG. 1. The protocol:
as §1, §2

Data set [10] deals with YCC7. The data set can be described thus: Cell viability (CCK-8), treatment alone, Example 1. The data set is classed as cell-based, human. To be noted: YCC7 gastric cancer cell line, different concentrations, 48 hours, FIG. 1. The method, then: as §1, §2
Data set [11] deals with HS746T. The data set can be described thus: Oxygen consumption rate (OCR) and extracellular acidification rate (ECAR), extracellular flux analyzer. The data set is classed as cell-based, human. The protocol:
(§3) In particular, in order to confirm that the CCG-232601 compound has an excellent inhibitory effect against the growth of cancer stem cells, the oxygen consumption rate (OCR) and extracellular acidification rate (ECAR) of the stern-like cell lines HS746T and MKN1 having high resistance to metabolic stress were measured and the results are FIG. 2. More specifically, each of the cell lines was inoculated at a confluency of 70 to 80% in Seahorse normal culture medium, and oxygen consumption rate (OCR, pmol/min/μg protein) and extracellular acidification rate (ECAR, mpH/min/μg protein) were analyzed using an XF96 or XFp extracellular flux analyzer (Agilent) to determine mitochondrial oxidation and glycolysis levels. Mitochondrial oxidation ability of the cells pretreated for 1 hour with or without 10 mM β-HB (Sigma) was evaluated using the Seahorse XF Mito Stress Kit (Agilent). To overcome changes in oxidation and glycolysis processes upon treatment with CCG-232601, the cells were pretreated overnight with vehicle or the inhibitor, and finally 10 mM β-hydroxybutyrate was added upon the first injection.

Data set [12] has as its system MKN1. The data set is described as above. The data set is classed as cell-based, human. The method, then: as §3
For data set [13], the system named is HS746T. The data set can be described thus: Transwell invasion assay. The data set is classed as cell-based, human. The note with it: 10 μg/ml, 12 hours, matrigel transwell, FIG. 3. The protocol:
(§4) Transwell invasion assay was performed with or without CCG-232601 treatment. Invasion ability was measured using a 6.5-mm transwell with an 8.0 μm-pore polycarbonate membrane insert (Corning) after coating with matrigel (Corning) diluted with serum-free medium to 0.67 μg/μl. Then, 2×10^4 cells per well were suspended in 200 μl of serum-free medium with vehicle or 10 μg/ml CCG-232601, and 1,000 μl of culture medium containing 10% FBS was added to the lower chamber. After 12 hours, the transferred cells were stained with 0.2% crystal violet and observed under an optical microscope. The average number of cells penetrating the membrane was counted with ImageJ (NIH) in three randomly selected high-power fields and two independent experiments, and the results are shown in FIG. 3.

Data set [14] concerns MKN1. Nature of the data set: Transwell invasion assay. Type of data set: cell-based, human. The note with it: MKN1, 10 μg/ml, 12 hours, matrigel transwell, FIG. 3. The protocol: as §4
For data set [15], the system named is MKN1 cell line. Nature of the data set: CCK-8 assay, CCG-232601 and cisplatin alone or in combination. The data set is classed as cell-based, human. To be noted: FIG. 6. The protocol: Accordingly, in order to evaluate the effect of co-administration of the compound CCG-232601, the survival and growth inhibitory effects upon administration of cisplatin (CDDP) and CCG-232601 alone or in combination to the MKN1 cell line were evaluated using a cell viability assay kit (Cell Counting Kit-8; CCK-8). Unlike administration alone, to evaluate the effect of co-administration, 5 μg/ml CCG-232601 was first administered to the MKN1 cell line, and 24 hours after administration of CCG-232601, 5 μM cisplatin (CDDP) was administered to the cell line, and 24 hours after administration of CDDP, CCK-8 assay was performed using a cell viability assay kit.
In general terms: Tetrazolium assays rely on reduction of a dye to a coloured formazan, in cell work by metabolically active cells.

The test system of data set [16] is HS746T cell line. The data set can be described thus: CCK-8 assay, CCG-232601 and oxaliplatin alone or in combination. The data set is classed as cell-based, human. The method, then:
In order to examine whether the co-administration of the compound CCG-232601 is also effective in improving drug sensitivity to other platinum-based anticancer drugs of the same family as cisplatin, the survival and growth inhibitory effects upon administration of CCG-232601 and oxaliplatin alone or in combination to the HS746T cell line were evaluated using a cell viability assay kit (Cell Counting Kit-8; CCK-8). Unlike administration alone, to evaluate the effect of co-administration, 5 μg/ml CCG-232601 was first administered to the HS746T cell line, and 24 hours after administration of CCG-232601, 24 μg/ml oxaliplatin was administered to the cell line, and 24 hours after administration of oxaliplatin, CCK-8 assay was performed using a cell viability assay kit.

For data set [17], the system named is bleomycin-induced dermal fibrosis. To be noted: administered orally to mice; cited from earlier work.
For data set [18], the system named is HS746T. Nature of the data set: Drug sensitivity upon treatment with cisplatin (CDDP). The data set is classed as cell-based, human. The protocol:
(§5) Drug sensitivity upon treatment with cisplatin (CDDP) was measured in the gastric cancer cell lines SNU601 and NCIN87 and the cell lines HS746T and MKN1 having gastric cancer stem cell-like characteristics, and the results are shown in FIG. 3.

Data set [19] deals with MKN1. Described as above. The data set is classed as cell-based, human. The protocol:
as §5

Consider `O=C(Nc1ccc(Cl)cc1)C1CCCN(C(=O)c2cccc(-c3ccco3)c2)C1` (centres unmarked) [CCG-203971, N-(4-chlorophenyl)-1-(3-(furan-2-yl)benzoyl)piperidine-3-carboxamide], for which, in data set [1], the “drug sensitivity to cisplatin in combination versus cisplatin alone” value was “drug sensitivity was improved”. Further, the “matrix stiffness and TGF-β-mediated fibrogenesis” value in [2] is recorded as “represses”. Further, the antifibrotic activity entry in data set [3] and in data set [4] was “shows antifibrotic activity” throughout.
On to `O=C(Nc1ccc(Cl)cc1)C1CN(C(=O)c2cccc(-c3ccco3)c2)CC(F)(F)C1` (centres unmarked) [CCG-222740, N-(4-chlorophenyl)-5,5-difluoro-1-(3-(furan-2-yl)benzoyl)piperidine-3-carboxamide], for which the “drug sensitivity to cisplatin in combination versus cisplatin alone” value in data set [1] is “drug sensitivity was improved”. In data set [5], the “expression of alpha smooth muscle actin protein” value was “prevent the expression”. In [6], the scar tissue formation entry is given as “effectively prevent scar tissue formation”.
With `O=C(Nc1ccc(Cl)cc1)C1CN(C(=O)c2cccc(-c3ccncc3)c2)CC(F)(F)C1` (centres unmarked) [CCG-232601, N-(4-chlorophenyl)-5,5-difluoro-1-(3-(pyridin-4-yl)benzoyl)piperidine-3-carboxamide], the “antitumor effect (cell number relative to negative control)” value in data set [7], in data set [8], in data set [9] and in data set [10] was “exhibited antitumor effects” throughout. In addition, the “susceptibility to glucose deprivation” value in data set [11] (conclusion from OCR/ECAR results) was “greatly increased the susceptibility”; in data set [12] (MKN1, conclusion from OCR/ECAR results), “greatly increased the susceptibility”. Moreover, the “glycolytic ECAR versus OCR (mitochondrial respiration)” value is “ECAR was higher than the OCR” in [11] (pretreated overnight with inhibitor, FIG. 2) and “ECAR was higher than the OCR” in [12] (MKN1, pretreated overnight with inhibitor, FIG. 2). Besides, the “invasion and metastasis (cells penetrating the membrane)” value in data set [13] is “reduced the invasion and metastasis”; in [14], “reduced the invasion and metastasis”. The “reduction of cell viability” value in [15] (MKN1, administered alone, compared to negative control group and cisplatin-alone group) came out at 20%. Moreover, the cytotoxicity at 5 µg/mL in data set [16] (Homo sapiens, 5 μg/ml CCG-232601, after 24 hours 24 μg/ml oxaliplatin, CCK-8 24 hours later, FIG. 7, read-out: reduction of cell viability compared to oxaliplatin alone) was at least 20%. In addition, the “growth of the cancer stem-like cells, administered alone” value in [16] (administered alone, FIG. 7) is “reduced the growth”. The “drug sensitivity to cisplatin in combination versus cisplatin alone” value in data set [1] is “drug sensitivity was improved”. The “development of bleomycin-induced dermal fibrosis” value in data set [17] is “suppress the development”.
On to `N.N.[Cl][Pt][Cl]` [cisplatin], for which the “antitumor effect (cell number relative to negative control)” value in data set [7] and in data set [8] was “exhibited significantly improved antitumor effects” each time. For the same compound, the “drug sensitivity lower than that of the cancer cell lines” value in [18] (HS746T versus SNU601 and NCIN87, FIG. 4) lay within 20 to 40%; in [19] (MKN1 versus SNU601 and NCIN87, FIG. 4), 20 to 40%. Further, the “resistance of the cell line to cisplatin” value in data set [18] (HS746T, FIG. 4) is given as “showed resistance”; in data set [19] (MKN1, FIG. 4) it was “showed resistance”. Moreover, the “effect on cell viability, administered alone” value in data set [15] (MKN1, cisplatin alone) was “drug resistance”.
